Assay results as given in ChEMBL document CHEMBL1909576, “Continued exploration of biphenylsulfonamide scaffold as a platform for aggrecanase-1 inhibition” (Bioorg Med Chem Lett, 2011).
Converted amounts (≈) assume the structure as drawn.

Tests used:
[1] = molecular target: T1, A disintegrin and metalloproteinase with thrombospondin motifs 4 (Homo sapiens, UniProt O75173); assay: Inhibition of aggrecanase-1
T1 sequence (O75173 whole entry): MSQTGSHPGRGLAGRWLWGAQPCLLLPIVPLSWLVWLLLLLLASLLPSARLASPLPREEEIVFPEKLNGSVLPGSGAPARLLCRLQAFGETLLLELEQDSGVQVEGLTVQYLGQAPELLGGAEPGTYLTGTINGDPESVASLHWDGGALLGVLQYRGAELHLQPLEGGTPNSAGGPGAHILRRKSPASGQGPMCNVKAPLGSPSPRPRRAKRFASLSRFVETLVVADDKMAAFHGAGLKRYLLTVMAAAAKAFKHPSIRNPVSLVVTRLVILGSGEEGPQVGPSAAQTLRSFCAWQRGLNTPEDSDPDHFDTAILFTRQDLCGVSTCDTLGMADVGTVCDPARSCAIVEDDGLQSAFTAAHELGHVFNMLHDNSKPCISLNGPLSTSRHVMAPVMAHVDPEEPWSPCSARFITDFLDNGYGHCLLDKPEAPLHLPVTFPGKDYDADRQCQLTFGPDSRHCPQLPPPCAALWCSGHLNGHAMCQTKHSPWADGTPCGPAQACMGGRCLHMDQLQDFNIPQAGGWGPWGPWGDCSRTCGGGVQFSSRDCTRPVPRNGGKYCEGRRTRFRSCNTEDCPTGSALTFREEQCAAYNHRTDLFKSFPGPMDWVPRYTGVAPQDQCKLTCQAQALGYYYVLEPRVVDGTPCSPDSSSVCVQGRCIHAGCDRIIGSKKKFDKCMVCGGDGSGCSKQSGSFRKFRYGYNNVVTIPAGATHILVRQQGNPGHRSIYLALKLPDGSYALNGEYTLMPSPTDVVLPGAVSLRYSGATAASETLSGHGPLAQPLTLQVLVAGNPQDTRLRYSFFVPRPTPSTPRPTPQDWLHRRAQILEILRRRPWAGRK

Collagenase 3 = Collagenase 3 (Homo sapiens, UniProt P45452); assay: Inhibition of MMP13
[2] = Solubility of the compound at pH 7.4; assay type: physicochemical; conditions: buffer
[3] = Clearance in Sprague-Dawley rat; assay type: ADME, organism-based; conditions: in vivo
[4] = Half life in Sprague-Dawley rat; assay type: ADME, organism-based; conditions: in vivo
[5] = Bioavailability in Sprague-Dawley rat; assay type: ADME, organism-based; conditions: in vivo
[6] = Permeability across human Caco2 cells; assay type: ADME, cell-based; conditions: Caco-2, read-out: permeability

IC50 [1] [µM] | IC50 (Collagenase 3) [nM] | solubility [2] [µg/mL] | clearance [3] [mL/min/kg] | half-life [4] [min] | bioavailability [5] [%] | Papp [6] [×10⁻⁶ cm/s] | Compound
15 | 4.6 | > 100 | 1.07 | 360 | 23 |  | CC(C)[C@@H](NS(=O)(=O)c1ccc(-c2ccc(OCc3ccccc3C#N)cc2)cc1)C(=O)O
0.8 | 0.1 | 53 (≈ 114 µM) |  | 420 |  | 0.8 | CC(C)[C@@H](NS(=O)(=O)c1ccc(-c2ccc(OCc3cccc(C#N)c3)cc2)cc1)C(=O)O
